# Earlier results in patent US20060135507A1, “Therapeutic agent for overactive bladder involved in aging” (priority 2004, published 2006).
# Assays:
# [1] = test system: rat with overactive bladder caused by cerebrovascular disease
# [2] = test system: human with overactive bladder caused by cerebrovascular disease
structure (smiles),measurement,setting,value
COc1ccc(C(=O)N2CCCC2=O)cc1 [Aniracetam],micturition reflex,[1],suppression of micturition reflex is observed
same,micturition reflex,[2],suppression of micturition reflex is observed
